Reference: ChEMBL document CHEMBL1687768, “Liposomal amphotericin B and echinocandins as monotherapy or sequential or concomitant therapy in murine disseminated and pulmonary Aspergillus fumigatus infections” (Antimicrob Agents Chemother, 2010)
Values after ≈ are worked out from the molar mass of the structure shown. Active and inactive are the calls of the source. No cut-off for these calls is given here. Starred links: 1 amine or outer side, 2 acyl side, 3 side chain; linkers in the order of their positions; H or OH if unused. Positions of bridges follow the written chain, without caps; N, C: chain ends. Non-standard residues stand in square brackets, D forms with d. Residues, ends and D or L forms follow the SMILES beside them. *: point of attachment. hTyr(3S-OH,4S-OH,3'-OSO3H) = N[C@H](C(=O)O)[C@H](O)[C@@H](O)c1ccc(O)c(OS(=O)(=O)O)c1; Orn(4R-OH,5R-OH) = O=C([C@H](C[C@@H](O)[C@@H](O)N[*:3])N[*:1])[*:2]; Pro(3S-OH,4S-Me) = C[C@H]1CN[C@H](C(=O)O)[C@H]1O; X1 = CCCCCOc1ccc(-c2cc(-c3ccc(C(=O)*)cc3)no2)cc1; Gln(3R-OH) = NC(=O)C[C@@H](O)[C@H](N)C(=O)O; Hyp = O=C(O)[C@@H]1C[C@@H](O)CN1

How the values were obtained:
[1] = tested on: Aspergillus fumigatus; assay: Antifungal activity against Aspergillus fumigatus ATCC 13073 infected in immunosuppressed Swiss Webster mouse assessed as increase in survival rate at 5 mg/kg, iv for 6 days treated 24 hrs postinfection measured after 28 days; format: functional, organism-based; design: dose 5 mg/kg
[2] = tested on: Kidney; assay: Drug level in immunosuppressed Swiss Webster mouse kidney with pulmonary aspergillosis assessed as compound level per gram of tissue at 5 mg/kg/day, iv for 5 days measured on day 6; format: ADME, organism-based; design: route intravenous; conditions: in vivo, 120 h
[3] = tested on: Aspergillus fumigatus; assay: Antifungal activity against Aspergillus fumigatus ATCC 13073 infected Swiss Webster mouse pulmonary aspergillosis model assessed as organism survival at 5 mg/kg/day, iv for 5 days dosed 2 hrs post challenge; format: functional
[4] = tested on: Spleen; assay: Drug level in immunosuppressed Swiss Webster mouse spleen with pulmonary aspergillosis assessed as compound level per gram of tissue at 5 mg/kg/day, iv for 5 days measured on day 6; format: ADME, organism-based; design: route intravenous; conditions: in vivo, 120 h
[5] = tested on: Aspergillus fumigatus; assay: Antifungal activity against Aspergillus fumigatus ATCC 13073; format: functional
[6] = tested on: Aspergillus fumigatus; assay: Antifungal activity against Aspergillus fumigatus ATCC 13073 infected in immunosuppressed Swiss Webster mouse assessed as reduction in fungal burden in spleen at 10 mg/kg, iv for 6 days treated 24 hrs postinfection measured 24 hrs after last dose relative to control; format: functional, organism-based; design: dose 10 mg/kg
[7] = tested on: Kidney; assay: Drug level in immunosuppressed Swiss Webster mouse Kidney with disseminated aspergillosis assessed as compound level per gram of tissue at 5 mg/kg/day, iv for 7 days measured on day 8; format: ADME, organism-based; design: route intravenous; conditions: in vivo, 168 h
[8] = tested on: Spleen; assay: Drug level in immunosuppressed Swiss Webster mouse spleen with disseminated aspergillosis assessed as compound level per gram of tissue at 15 mg/kg/day, iv for 7 days measured on day 8; format: ADME, organism-based; design: route intravenous; conditions: in vivo, 168 h
[9] = tested on: Aspergillus fumigatus; assay: Antifungal activity against Aspergillus fumigatus ATCC 13073 infected in immunosuppressed Swiss Webster mouse assessed as reduction in fungal burden in kidney at 5 mg/kg, iv for 3 days treated 4 days postinfection relative to control; format: functional, organism-based; design: dose 5 mg/kg
[10] = tested on: Kidney; assay: Drug level in immunosuppressed Swiss Webster mouse Kidney with disseminated aspergillosis assessed as compound level per gram of tissue at 10 mg/kg/day, iv for 7 days measured on day 8; format: ADME, organism-based; design: route intravenous; conditions: in vivo, 168 h
[11] = tested on: Spleen; assay: Drug level in immunosuppressed Swiss Webster mouse spleen with disseminated aspergillosis assessed as compound level per gram of tissue at 5 mg/kg/day, iv for 7 days measured on day 8; format: ADME, organism-based; design: route intravenous; conditions: in vivo, 168 h
[12] = tested on: Aspergillus fumigatus; assay: Antifungal activity against Aspergillus fumigatus ATCC 13073 infected in immunosuppressed Swiss Webster mouse assessed as reduction in fungal burden in spleen at 5 mg/kg, iv for 3 days treated 4 days postinfection relative to control; format: functional, organism-based; design: dose 5 mg/kg
[13] = tested on: Aspergillus fumigatus; assay: Antifungal activity against Aspergillus fumigatus ATCC 13073 infected in immunosuppressed Swiss Webster mouse assessed as survival rate at 15 mg/kg, iv for 6 days measured after 28 days; format: functional
[14] = tested on: Spleen; assay: Drug level in immunosuppressed Swiss Webster mouse spleen with disseminated aspergillosis assessed as compound level per gram of tissue at 10 mg/kg/day, iv for 7 days measured on day 8; format: ADME, organism-based; design: route intravenous; conditions: in vivo, 168 h
[15] = tested on: Aspergillus fumigatus; assay: Antifungal activity against Aspergillus fumigatus ATCC 13073 infected in immunosuppressed Swiss Webster mouse assessed as reduction in fungal burden in kidney at 5 mg/kg, iv for 6 days measured 24 hrs after last dose relative to control; format: functional, organism-based; design: dose 5 mg/kg
[16] = tested on: Aspergillus fumigatus; assay: Antifungal activity against Aspergillus fumigatus ATCC 13073 infected in immunosuppressed Swiss Webster mouse assessed as reduction in fungal burden in spleen at 5 mg/kg, iv for 6 days treated 24 hrs postinfection measured 24 hrs after last dose relative to control; format: functional, organism-based; design: dose 5 mg/kg
[17] = tested on: Aspergillus fumigatus; assay: Antifungal activity against Aspergillus fumigatus ATCC 13073 infected in immunosuppressed Swiss Webster mouse assessed as reduction in fungal burden in spleen at 15 mg/kg, iv for 6 days treated 24 hrs postinfection measured 24 hrs after last dose by galactomnnan assay relative to control; format: functional, organism-based; design: dose 15 mg/kg
[18] = tested on: Kidney; assay: Drug level in immunosuppressed Swiss Webster mouse Kidney with disseminated aspergillosis assessed as compound level per gram of tissue at 15 mg/kg/day, iv for 7 days measured on day 8; format: ADME, organism-based; design: route intravenous; conditions: in vivo, 168 h
[19] = tested on: Aspergillus fumigatus; assay: Antifungal activity against Aspergillus fumigatus ATCC 13073 infected in immunosuppressed Swiss Webster mouse assessed as survival rate at 5 mg/kg, iv for 6 days treated 24hrs postinfection measured after 28 days; format: functional

With CC[C@H](C)C[C@H](C)CCCCCCCCC(=O)N[C@H]1C[C@@H](O)[C@@H](NCCN)NC(=O)[C@@H]2[C@@H](O)CCN2C(=O)[C@H]([C@H](O)CCN)NC(=O)[C@H]([C@H](O)[C@@H](O)c2ccc(O)cc2)NC(=O)[C@@H]2C[C@@H](O)CN2C(=O)[C@H]([C@@H](C)O)NC1=O [CASPOFUNGIN] the Activity [1] was “Active”, the tissue concentration [2] was 14.4 µg/g and the survival at 5 mg/kg/day [3] was 0%. The tissue concentration [4] was 31.6 µg/g and the MIC [5] was 0.31 µg/mL (≈ 0.284 µM).

In the case of CCCCCOc1ccc(-c2cc(-c3ccc(C(=O)N[C@H]4C[C@@H](O)[C@@H](O)NC(=O)[C@@H]5[C@@H](O)[C@@H](C)CN5C(=O)[C@H]([C@H](O)CC(N)=O)NC(=O)[C@H]([C@H](O)[C@@H](O)c5ccc(O)c(OS(=O)(=O)O)c5)NC(=O)[C@@H]5C[C@@H](O)CN5C(=O)[C@H]([C@@H](C)O)NC4=O)cc3)no2)cc1 [MICAFUNGIN] (X1-[Orn(4R-OH,5R-OH)]T[Hyp][hTyr(3S-OH,4S-OH,3'-OSO3H)][Gln(3R-OH)][Pro(3S-OH,4S-Me)]; lactam 1-C), the Activity [6] is reported as “Active”, the tissue concentration [7] is reported as 5.6 µg/g and the tissue concentration [8] is reported as 32.7 µg/g. For the same compound, the Activity [9] was “inactive”, the tissue concentration [10] was 25.2 µg/g and the tissue concentration [11] was 17.9 µg/g. For the same compound, the Activity [12] was “inactive”, the survival at 15 mg/kg [13] was 57% and the tissue concentration [14] was 33.6 µg/g. The Activity [15] was “Active”, the Activity [16] was “Active” and the Activity [17] was “Active”. For the same compound, the tissue concentration [18] was 22.5 µg/g, the survival at 5 mg/kg [19] was 86% and the MIC [5] was 0.31 µg/mL (≈ 0.244 µM).
